# Test results as given in ChEMBL document CHEMBL1909046, “DrugMatrix in vitro pharmacology data”.
# How the values were obtained:
# [1] = DRUGMATRIX: Calcium Channel Type L, Benzothiazepine radioligand binding (ligand: [3H] Diltiazem); type: cell membranes, Rattus norvegicus, Wistar, Brain, Membrane; settings: Not Active = under 50% inhibition at 10 µM
# [2] = DRUGMATRIX: Tumor Necrosis Factor (TNF), Non-Selective radioligand binding (ligand: [125I] TNF-alpha); type: cell membranes, Membrane; settings: u-937; Not Active = under 50% inhibition at 10 µM
# Glycine receptor = Glycine receptor (Rattus norvegicus, UniProt P22771+P24524+P07727+P20781); type: cell membranes, Wistar, Spinal cord, Membrane; note: in other assays of this panel Not Active means under 50% inhibition at 10 µM
# [3] = target: T1, 3-hydroxy-3-methylglutaryl-coenzyme A reductase (Homo sapiens, UniProt P04035); set-up: species or system Escherichia coli;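 note: enzyme inhibition assay of HMG-CoA reductase using radiolabeled [14C]HMG-CoA as substrate; in other assays of this panel Not Active means under 50% inhibition at 10 µM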
# T1 sequence (P04035 whole entry): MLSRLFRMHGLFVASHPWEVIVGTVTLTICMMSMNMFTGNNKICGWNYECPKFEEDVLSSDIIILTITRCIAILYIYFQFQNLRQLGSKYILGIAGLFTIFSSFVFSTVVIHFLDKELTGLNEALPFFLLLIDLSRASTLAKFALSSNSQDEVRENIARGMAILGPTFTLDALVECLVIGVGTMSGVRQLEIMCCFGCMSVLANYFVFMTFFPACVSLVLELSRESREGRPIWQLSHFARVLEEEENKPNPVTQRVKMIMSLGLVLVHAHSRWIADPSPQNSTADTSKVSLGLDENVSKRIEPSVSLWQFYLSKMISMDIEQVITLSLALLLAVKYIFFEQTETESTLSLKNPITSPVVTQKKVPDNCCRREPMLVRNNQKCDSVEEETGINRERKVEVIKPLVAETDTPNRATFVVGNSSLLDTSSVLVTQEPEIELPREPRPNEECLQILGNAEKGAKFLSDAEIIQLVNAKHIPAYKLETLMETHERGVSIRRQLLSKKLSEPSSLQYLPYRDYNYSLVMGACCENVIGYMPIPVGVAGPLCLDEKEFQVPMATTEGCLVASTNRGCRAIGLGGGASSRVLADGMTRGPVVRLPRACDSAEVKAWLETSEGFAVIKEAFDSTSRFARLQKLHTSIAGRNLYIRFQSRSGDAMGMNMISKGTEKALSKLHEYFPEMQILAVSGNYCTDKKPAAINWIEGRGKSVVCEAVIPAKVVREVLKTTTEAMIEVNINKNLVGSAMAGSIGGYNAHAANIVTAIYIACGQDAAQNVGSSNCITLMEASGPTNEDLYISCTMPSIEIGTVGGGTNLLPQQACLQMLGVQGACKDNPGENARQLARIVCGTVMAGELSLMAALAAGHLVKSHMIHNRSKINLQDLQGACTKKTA
# [4] = DRUGMATRIX: Leukotriene, BLT (LTB4) radioligand binding (ligand: [3H]LTB4); type: cell membranes, Membrane; settings: u-937; Not Active = under 50% inhibition at 10 µM
# Leukotriene C4 synthase = target: T2, Leukotriene C4 synthase (Cavia porcellus, UniProt A6XA80); type: tissue-based, Lung;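 note: enzyme inhibition assay of leukotriene C4 synthase, using LTA4 as the substrate; in other assays of this panel Not Active means under 50% inhibition at 10 µM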
# T2 sequence (A6XA80 whole entry): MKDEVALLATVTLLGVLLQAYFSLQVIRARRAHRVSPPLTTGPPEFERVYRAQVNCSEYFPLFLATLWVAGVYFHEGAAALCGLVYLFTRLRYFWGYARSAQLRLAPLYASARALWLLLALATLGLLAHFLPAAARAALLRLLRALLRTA
# [5] = target: T3, Neuropeptide Y receptor type 1 (Homo sapiens, UniProt P25929); type: cell membranes, Membrane; settings: sk-n-mc; note: in other assays of this panel Not Active means under 50% inhibition at 10 µM
# T3 sequence (P25929 whole entry): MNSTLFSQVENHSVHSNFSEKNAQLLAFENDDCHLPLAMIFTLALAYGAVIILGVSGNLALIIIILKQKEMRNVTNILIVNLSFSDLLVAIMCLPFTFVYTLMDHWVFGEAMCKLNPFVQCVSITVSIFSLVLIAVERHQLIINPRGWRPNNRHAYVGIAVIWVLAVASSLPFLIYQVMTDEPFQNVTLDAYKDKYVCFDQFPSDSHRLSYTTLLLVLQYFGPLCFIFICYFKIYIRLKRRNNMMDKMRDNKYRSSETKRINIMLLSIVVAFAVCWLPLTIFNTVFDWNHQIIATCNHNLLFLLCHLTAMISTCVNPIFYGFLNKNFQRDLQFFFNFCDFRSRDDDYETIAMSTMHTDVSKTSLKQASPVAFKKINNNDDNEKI
# Cytochrome P450 3A4 = Cytochrome P450 3A4 (Homo sapiens, UniProt P08684); settings: bti-tn-5b1-4; note: in other assays of this panel Not Active means under 50% inhibition at 10 µM
# Chain of Cytochrome P450 3A4 (P08684 whole entry): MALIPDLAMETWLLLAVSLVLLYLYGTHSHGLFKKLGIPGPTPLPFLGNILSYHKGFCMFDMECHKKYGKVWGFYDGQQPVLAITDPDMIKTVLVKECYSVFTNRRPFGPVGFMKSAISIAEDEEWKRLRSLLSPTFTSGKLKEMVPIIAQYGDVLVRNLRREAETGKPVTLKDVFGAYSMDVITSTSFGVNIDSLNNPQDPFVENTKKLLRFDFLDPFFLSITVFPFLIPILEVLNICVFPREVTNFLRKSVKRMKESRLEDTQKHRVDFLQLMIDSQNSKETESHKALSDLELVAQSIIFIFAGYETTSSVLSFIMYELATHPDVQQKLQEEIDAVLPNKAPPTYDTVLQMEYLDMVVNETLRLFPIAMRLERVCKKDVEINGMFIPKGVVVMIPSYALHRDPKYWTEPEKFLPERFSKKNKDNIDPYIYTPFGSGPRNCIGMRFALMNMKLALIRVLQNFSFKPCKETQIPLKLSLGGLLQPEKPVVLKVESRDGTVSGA
SMILES,IC50 [1],Ki [1],IC50 [2],Ki [2],IC50 (Glycine receptor),IC50 [3],IC50 [4],Ki [4],IC50 (Leukotriene C4 synthase),IC50 [5],IC50 (Cytochrome P450 3A4),Ki (Cytochrome P450 3A4),IC50 ([1]; read-out: IC50) [nM],Ki ([1]; read-out: Ki) [nM]
Cn1c(=O)c2c(ncn2C)n(C)c1=O [CAFFEINE],Not Active,Not Active,Not Active,Not Active,Not Active,Not Active,Not Active,Not Active,Not Active,Not Active,Not Active,Not Active,–,–
C[C@]12CC[C@H]3[C@@H](CCC4=CC(=O)CC[C@@H]43)[C@@H]1CC[C@@H]2O [NANDROLONE],Not Active,Not Active,Not Active,Not Active,Not Active,Not Active,Not Active,Not Active,Not Active,Not Active,Not Active,Not Active,–,–
CS(=O)(=O)Nc1ccc([N+](=O)[O-])cc1Oc1ccccc1 [NIMESULIDE],Not Active,Not Active,Not Active,Not Active,Not Active,Not Active,Not Active,Not Active,Not Active,Not Active,Not Active,Not Active,–,–
CN1CCC(=C2c3ccccc3CC(=O)c3sccc32)CC1 [KETOTIFEN],–,–,Not Active,Not Active,Not Active,Not Active,Not Active,Not Active,Not Active,Not Active,Not Active,Not Active,2300,2050
NC(=O)N1c2ccccc2CC(=O)c2ccccc21 [OXCARBAZEPINE],Not Active,Not Active,Not Active,Not Active,Not Active,Not Active,Not Active,Not Active,Not Active,Not Active,Not Active,Not Active,–,–
